Measurements published in patent EP0193637A1, “Use for the improvement or treatment of various diseases associated with cerebrovascular damages” (Yoshitomi Pharmaceutical Industries, Ltd., priority 1985, dated 1986).
Structures can show the parent of a compound that is named as a salt. Marks after values point to notes of the source that are not given here.

Tests used:
[1] = system: cerebral energy state in KCN-induced anoxia mice; assay: Cerebral energy state in KCN-induced anoxia mice; format: in vivo; conditions: brain, p<0.01 vs. control; for ADP / AMP / ATP / Glucose / Lactate / P-creatine: Compound A i.p.; for ECP (Energy charge potential): ECP = ATP + 0.5xADP / ATP + ADP + AMP
Method: Male ddY-mice weighing 22-26 g were used. Compound A was dissolved in 0.5 % methylcellulose solution and injected intraperitoneally. After administration, 2.5 mg/kg of KCN in saline was injected intravenously. The animals were frozen in liquid nitrogen at 30 or 120 seconds laterm After removing and weighing, the frozen cerebrums were powdered.
According to the procedure by Lowry, O. H. et al described in "A flexible system of enzymatic analysis" (Academic press 1978) or by Yasuda et al described in Arch. Int. Pharmacodyn., vol. 242, p. 77-85 (1979), contents of Phosphocreatine (P-creatine), ATP, ADP, AMP, glucose and lactate in brain were determined. Concentrations (µ moles/g of brain) were calculated. Student's t-test was used in the statical analysis of the results.

KCN-induced coma = assay: KCN-induced coma, recovery of righting reflex; format: in vivo, mice; conditions: values are log t, 10 mg/kg i.p. 30 minutes prior to KCN 1.8 mg/kg i.v., p<0.01 vs. control
Method: Male dd-mice were intraperitoneally injected with Compound A 30 minutes prior to the intravenous injection of 1.8 mg/kg of KCN-saline solution. The time to recovery of righting reflex, coma time, was determined.

[2] = system: 2-deoxy-D-glucose uptake into rat brain; assay: Chronic administration, 2-deoxy-D-glucose uptake into rat brain; format: in vivo; conditions: 10 mg/kg i.p. once daily for 14 days; for dpm/mg tissue dpm/µl serum: 3H-2-deoxy-D-glucose 27 hours after last administration, mean ± standard error, p<0.05 vs. control; for dpm/mg tissue dpm/µl serum (Δ%): change vs. control
Method: 2-deoxy-D-glucose uptake into rat brain Compound A was administered intraperitoneally to male Wistar-rat once daily for 14 days. ^3H-2-deoxy-D-glucose (40 µCi/kg, i.p.) was injected to rats 27 hours after the last administration of Compound A. Fifteen minuts after the injection of 3H-2-deoxy-D-glucose, the animals were decapitated and blood from trunk was collected simultaneously. The brains were dissected into five regions. Radioactivity in the brain sample and serum was counted using Soluene-350 and toluene scintillator. […] Each value represents the mean ± standard error.

Acute toxicity in rats = conditions: rat, in vivo, po, one week-observation
Method: (§1) Compound A was orally administered to male Wistar-rats weighing about 200 g and male ddY-mice weighing 20-25 g. After one week-observation, the LD50 value (mg/kg) was measured.

KCN-induced mortality = assay: KCN-induced mortality; format: in vivo, mice; conditions: 30 mg/kg i.p. 30 minutes before KCN 2.5 mg/kg i.v.
[3] = system: scopolamine induced amnesia; assay: Scopolamine induced amnesia, one trial step-through passive avoidance response; format: in vivo, mice; conditions: scopolamine (3 mg/kg i.p.) induced amnesia; 5 mg/kg i.p. immediately after foot shock; test 24 hours after training; mean ± standard error; p<0.05 vs. SCO-vehicle control
Text: (§2) Male ddY-mice, weighing 19-25 g were used. The test apparatus consisted of a two-compartment avoidance box with a large 10x23x20 cm compartment illuminated by a 40W bulb, and a. small 14x14x20 cm shock compartment, painted black, with a floor made of metal rods 6 mm apart through which a foot shock (FS, 0.25 mA, 2 seconds) could be delivered. The two compartments were separated by a guillotine door.
(§3) The training procedure consisted of placing the mouse in the center of the large compartment. Within 20 to 50 seconds the animal entered the small compartment and was immediately given FS, and removed from the compartment. The animals were exposed to C02 for 8 seconds or given an electroconvulsive shock (ECS, 30 mA, 0.5 seconds) immediately after FS, or were injected with an amnestic agent scopolamine (SCO, 3 mg/kg i.p.) 20 minutes before FS.
(§4) The testing procedure consisted of placing the animal in the large compartment as above and noting the latency to enter the dark compartment up to 600 seconds. The training-to-test interval was 24 hours. Compound A or vehicle (0.5 % methylcellulose) was injected intraperitoneally immediately after exposure to C02 or ECS. For the scopolamine induced amnesia model, they were injected intraperitoneally immediately after FS. Thirty mice were used per test group.

normabaric hypoxia = assay: Normobaric hypoxia, time to respiratory failure; format: in vivo, mice; conditions: 30 mg/kg i.p., nitrogen and oxygen (96:4), mean ± standard error, p<0.01 vs. control
Method: The experiment was performed according to the method by Yasuda et al described in Arch. Int. Pharmacolodyn., vol. 233, p. 136-144 (1978).
Three male ddY-mice were introduced into a 300 ml glass container in which circulated a current of a gas mixture of nitrogen and oxygen (96:4) at the rate of about 51/minutes. The time to respiratory failure was recorded.

CO2-induced amnesia = assay: CO2-induced amnesia, one trial step-through passive avoidance response; format: in vivo, mice; conditions: 5 mg/kg i.p. immediately after CO2, test 24 hours after training, up to 600 seconds, mean ± standard error, p<0.01 vs. CO2-vehicle control
Text: as §2, §3, §4

Acute toxicity in mice = conditions: mouse, in vivo, po, one week-observation
Method: as §1

ECS = assay: Electroconvulsive shock (ECS) induced amnesia, one trial step-through passive avoidance response; format: in vivo, mice; conditions: ECS-induced amnesia (30 mA, 0.5 seconds); 5 mg/kg i.p. immediately after ECS; test 24 hours after training; mean ± standard error; p<0.05 vs. ECS-vehicle control
Text: as §2, §3, §4

[4] = 30 sec. after KCN 2.5mg/kg i.v.
[5] = 120 sec. after KCN 2.5mg/kg i.v.

For `c1csc(Cc2ccccc2OCC2CNCCO2)c1` (stereo not drawn) [Compound A, 2-(2-(2-thienylmethyl)phenoxymetyl)morpholine maleate], the ADP [1, 4] was 0.599 ± 0.020 µmol/g of wet tissue, the AMP [1, 4] was 0.107 ± 0.009 µmol/g of wet tissue and the ATP [1, 4] was 2.62 ± 0.07 µmol/g of wet tissue. The Glucose [1, 4] was 1.25 ± 0.11 µmol/g of wet tissue, the Lactate [1, 4] was 4.92 ± 0.17 µmol/g of wet tissue and the P-creatine [1, 4] was 2.52 ± 0.13 µmol/g of wet tissue. For the same compound, the “ECP (Energy charge potential)” value [1, 4] was 0.880 ± 0.004, the ADP [1, 5] was 0.509 ± 0.023 µmol/g of wet tissue and the AMP [1, 5] was 0.044 ± 0.005 µmol/g of wet tissue. The ATP [1, 5] was 2.60 ± 0.02 µmol/g of wet tissue, the Glucose [1, 5] was 0.64 ± 0.04 µmol/g of wet tissue and the Lactate [1, 5] was 7.42 ± 0.42 µmol/g of wet tissue. For the same compound, the P-creatine [1, 5] was 2.40 ± 0.09 µmol/g of wet tissue, the “ECP (Energy charge potential)” value [1, 5] was 0.905 ± 0.004 and the “Coma time (sec.) (log t ± S.E.)” value (KCN-induced coma) was 1.95 ± 0.039 sec. For the same compound, the “dpm/mg tissue dpm/µl serum” value ([2]; Hippocampus) was 0.90 ± 0.07, the “dpm/mg tissue dpm/µl serum (Δ%)” value ([2]; Hippocampus) was “+20%” and the “dpm/mg tissue dpm/µl serum” value ([2]; Parietal cortex) was 1.27 ± 0.11. For the same compound, the “dpm/mg tissue dpm/µl serum (Δ%)” value ([2]; Parietal cortex) was “+21%”, the LD50 at 168 h (Acute toxicity in rats) was 1710 mg/kg and the Lethality (KCN-induced mortality) was 0. The “Survival animals/ animals used” value (KCN-induced mortality; p<0.01 vs. control) was 10/10**, the Latency [3] was 169.6 ± 26.7 s and the Survival time (normabaric hypoxia) was 3.87 ± 0.32 min. It also gave a Latency (CO2-induced amnesia) of 324.5 ± 37.1 s, an LD50 at 168 h (Acute toxicity in mice) of 716 mg/kg and a Latency (ECS) of 357.5 ± 46.5 s.
